From patent US10407447B2, “Pantothenate derivatives for the treatment of neurological disorders” (Retrophin, Inc., priority 2013, dated 2019)

Assays:
[1] = tested on: Pank1−/− mice; assay: In vivo testing: liver Coenzyme A levels in Pank1−/− mice; design: species or system mouse; details: liver CoA in treated Pank1−/− mice as percentage of untreated Pank1−/− mice; intraperitoneal 1.2 μmoles/g body weight once daily for 5 days, fasted overnight
Experimental: Compounds of the invention were tested for efficacy in Pank1^−/− mice (strain 129SvJ×C57BL/6J background), which were compared with age-matched Pank1^+/+ (strain 129SvJ×C57BL/6J) littermates, ages 8-12 weeks. Each mouse was identified with a coded ear tag and weighed on the first day of testing. Each compound was administered to 4-5 mice by intraperitoneal injection at a dose of 1.2 μmoles/g body weight in 5 μL dimethylsulfoxide once daily for 5 days, and mice were then fasted overnight, weighed, and euthanized. Untreated mice received 5 μL dimethylsulfoxide once daily for 5 days and then were fasted overnight prior to weighing and euthanasia. Livers were excised from each mouse, aliquots were snap-frozen in liquid nitrogen, and stored at −80° C. Within 7 days, liver samples were thawed on ice, weighed, and analyzed for Coenzyme A content as described below. Efficacy was indicated by a statistically significant increase in the liver Coenzyme A levels in the Pank1^−/− mice as compared to the liver from untreated Pank1^−/− mice and by equivalence in comparison with Coenzyme A levels in untreated Pank1^+/+ mice.
CoA Measurements: Extraction of Fibroblasts and Liver and Derivatization of Coenzyme A Prior to High Pressure Liquid Chromatography (HPLC) […]
Coenzyme A Quantification by HPLC […]

[2] = tested on: PANK2 silenced cells (IMR32 Human Neuroblastoma Cells); assay: Neuroblastoma cell assay: CoASH by LC-MS/MS in PANK2 silenced cells; type: cell-based; details: 50 μM, treatment repeated after 24 hours, further 24 hours; free CoASH by LC-MS/MS
Experimental: The compounds described herein may be tested in PANK2 silenced cells (IMR32 Human Neuroblastoma Cells). The amount of CoASH following administration of the compounds is measured by LC-MS/MS.
Human neuroblastoma IMR32 cells (ATCC) were cultured in MEM (Invitrogen) supplemented with 10% fetal bovine serum, 2 mM glutamine, 1% penicillin-streptomycin, 1 mM sodium pyruvate, 1 mM non essential aminoacids and 1.5 g/l sodium bicarbonate.
Human Emryonic Kidney HEK-293T cells (ATCC) were cultured in DMEM supplemented with 10% fetal bovine serum, 1 mM glutamine, 1% penicillin-streptomycin.
The cells were maintained at 37° C. under 5% CO2.
Establishment of a PANK2−/− Cell Model
For lentiviral shRNA expression, Human Emryonic Kidney HEK-293T cells (ATCC) were transfected with the appropriate pGFP-Lenti-shRNA constructs and packaging plasmids according to manufacturer's protocol (Origene Technologies, Inc.). 4 different gene-specific shRNA expression vectors designed against multiple splice variants of PANK2 (Gene ID 80025) were used for transfection. A non-silencing shRNA construct (scrambled shRNA) and an empty vector expressing GFP alone were used as negative controls. The GFP tag subcloned into the lentiviral vectors was used to monitor the transfection efficiency.
IMR32 cells were plated on […] dishes 48 hrs before transduction with lentiviral particles.
Three days after transduction medium was removed and replaced with fresh medium containing […] puromycin. Medium was replaced every 48 hrs. Levels of PANK2 expression on selected clones was assessed by Western Blot analysis.
Cell-Based Assay on PANK2−/− Cells
Cells were plated on 6-well culture plates. After 72 hours, compounds were diluted in DMSO and added to the culture medium such that the final solvent concentration was 0.1% (v/v). […] Before analysis of Coenzyme A levels, cells were harvested, counted and collected in a 15 ml falcon tube and centrifuged at 200×g for 5 min at 4° C. […]
Results are expressed as fold increase in CoA levels (LCMS quantification of free CoASH as described in above).

COC(=O)[C@H](C)NP(=O)(OCC(C)(C)[C@@H](O)C(=O)NCCC(=O)OCc1ccccc1)Oc1ccccc1 (stereo partly drawn) [Compound 22, Benzyl 3-((2R)-2-hydroxy-4-(((((S)-1-methoxy-1-oxopropan-2-yl)amino)(phenoxy)phosphoryl)oxy)-3,3-dimethylbutanamido)propanoate]
CoA (% KO) [1]: 400 % KO
CoA levels (fold over vehicle treated PANK2−/− cells) [2]: 1.1 fold

COC(=O)CCNC(=O)[C@H](O)C(C)(C)COP(=O)(N[C@@H](C)C(=O)OCc1ccccc1)Oc1ccccc1 (stereo partly drawn) [Compound 24, Benzyl (((R)-3-hydroxy-4-((3-methoxy-3-oxopropyl)amino)-2,2-dimethyl-4-oxobutoxy)(phenoxy)phosphoryl)-L-alaninate]
CoA levels (fold over vehicle treated PANK2−/− cells) [2]: 1.7 fold

COC(=O)CCNC(=O)[C@H](O)C(C)(C)COP(=O)(N[C@@H](Cc1ccccc1)C(=O)OCc1ccccc1)Oc1ccccc1 (stereo partly drawn) [Compound 27, Benzyl (((R)-3-hydroxy-4-((3-methoxy-3-oxopropyl)amino)-2,2-dimethyl-4-oxobutoxy)(phenoxy)phosphoryl)-L-phenylalaninate]
CoA (% KO) [1]: 1837 % KO
CoA levels (fold over vehicle treated PANK2−/− cells) [2]: 1.3 fold
